Our source for the chromatographic logP and pest or weed control values is patent US8324390B2, “Tetrazole-substituted anthranilamides as pesticides” (Bayer CropScience AG, priority 2008, dated 2012).

Series [1] is described as follows: log P determination by HPLC (EEC Directive 79/831 Annex V.A8). In kind it is physicochemical. The method, then:
The measurements were carried out using an Agilent 1100 LC system with a 50*4.6 Zorbax Eclipse C18 1.8 μm column (oven temperature 55° C., flow rate 2.0 ml/min).
The following mobile phases were used:
Mobile phase A: acetonitrile+1000 μl of formic acid/l
Mobile phase B: Millipore water+900 μl of formic acid/l

Series [2] has as its system caterpillars of the armyworm (Spodoptera frugiperda). Put plainly: Spodoptera frugiperda test (SPODFR spray treatment). The note with it: Spodoptera frugiperda, foliar, read-out: effect in % (caterpillars killed). Type of series: in vivo. The text has this: Solvent: 78.0 parts by weight of acetone
Series [3] concerns larvae of the mustard beetle (Phaedon cochleariae). Put plainly: Phaedon test (PHAECO spray treatment). The note with it: Phaedon cochleariae, in Brassica rapa, foliar, read-out: effect in % (beetle larvae killed).
Where [4] appears, read: reversed-phase HPLC, Zorbax Eclipse C18 column, by HPLC according to EEC Directive 79/831 Annex V.A8, read-out: log P.
Where [5] appears, read: application rate 100 g/ha, maize leaf discs.
Where [6] appears, read: reversed-phase HPLC, Zorbax Eclipse C18 column, determined by HPLC according to EEC Directive 79/831 Annex V.A8, read-out: log P.

SMILES strings stand for the structures. Read-outs that look alike come from different tables or passages of the source.

In turn, `Cc1cc(Br)cc(C(=O)NC(C)C)c1NC(=O)c1cc(Cn2nnc(C(F)(F)F)n2)nn1-c1ncccc1Cl` [Example 39] had a chromatographic logP in series [1] (log P) of 3.57. Moreover, the pest or weed control at 100 g/ha in series [2] (in Zea mays) and in series [3] was no less than 80% in each case.
As to `CNC(=O)c1cc(Cl)cc(C)c1NC(=O)c1cc(Cn2nnc(C(F)(F)F)n2)nn1-c1ncccc1C(F)(F)F` [Example 226], the chromatographic logP in series [1] (setting [4]) was found to be 3.16. The pest or weed control at 100 g/ha in series [2] (setting [5]) and in series [3] was no less than 80% in each case.
For `Cc1cc(F)cc(C(=O)NC(C)C2CC2)c1NC(=O)c1cc(Cn2nnc(C(F)(F)C(F)(F)F)n2)nn1-c1ncccc1Cl` (stereo not drawn) [Example 148], in series [1] (log P), the chromatographic logP turned out to be 3.8. Moreover, the pest or weed control at 100 g/ha in series [2] (in Zea mays) and in series [3] was no less than 80% throughout.
For the compound `CNC(=O)c1cc(Cl)cc(C)c1NC(=O)c1cc(Cn2nnc(C(C)(C)C)n2)nn1-c1ncccc1Cl` [Example 103], the chromatographic logP in series [1] (log P) amounted to 3.02. For the same compound, the pest or weed control at 100 g/ha in series [2] (in Zea mays) and in series [3] was no less than 80% in each case.
For `Cc1cc(Br)cc(C(=O)NC2CC2)c1NC(=O)c1cc(Cn2nnc(C(F)(F)C(F)(F)F)n2)nn1-c1ncccc1Cl` [Example 145], the chromatographic logP in series [1] (log P) came to 3.74. Moreover, the pest or weed control at 100 g/ha in series [2] (in Zea mays) and in series [3] was no less than 80% in each case.
In the case of `CNC(=O)c1cc(Br)cc(C)c1NC(=O)c1cc(Cn2nnc(C(F)(F)F)n2)nn1-c1ncccc1C(F)(F)F` [Example 228], the chromatographic logP in series [1] (setting [4]) amounted to 3.28. Moreover, the pest or weed control at 100 g/ha in series [2] (setting [5]) and in series [3] was no less than 80% in each case.
On to `CNC(=O)c1cc(Cl)cc(C)c1NC(=O)c1cc(Cn2nnc(C(F)(F)F)n2)nn1-c1ccccc1` [Example 404], for which the chromatographic logP in series [1] (setting [6]) was 3.19. The pest or weed control at 100 g/ha in series [2] (setting [5]) and in series [3] was no less than 80% throughout.
The compound `Cc1cc(Cl)cc(C(=O)NC(C)C2CC2)c1NC(=O)c1cc(Cn2nnc(C(F)F)n2)nn1-c1ncccc1Cl` (stereo not drawn) [Example 256] came in with a chromatographic logP in series [1] (log P) of 3.24. For the same compound, the pest or weed control at 100 g/ha in series [2] (in Zea mays) and in series [3] was no less than 80% each time.
For `CC(NC(=O)c1cc(Cl)cc(Cl)c1NC(=O)c1cc(Cn2nnc(C(F)(C(F)(F)F)C(F)(F)F)n2)nn1-c1ncccc1Cl)C1CC1` (stereo not drawn) [Example 387], the chromatographic logP in series [1] (setting [4]) turned out to be 4.42. Further, the pest or weed control at 100 g/ha in series [2] (setting [5]) and in series [3] was no less than 80% each time.
Take `Cc1cc(Cl)cc(C(=O)NC2CCC2)c1NC(=O)c1cc(Cn2nnc(C(F)(F)C(F)(F)F)n2)nn1-c1ncccc1Cl` [Example 132]: the chromatographic logP in series [1] (log P) stood at 4.03. Moreover, the pest or weed control at 100 g/ha in series [2] (in Zea mays) and in series [3] was no less than 80% each time.
Regarding `C=CCNC(=O)c1cc(Cl)cc(C)c1NC(=O)c1cc(Cn2nnc(C(F)(F)F)n2)nn1-c1ncccc1Cl` [Example 319], the chromatographic logP in series [1] (log P) is 3.34. Further, the pest or weed control at 100 g/ha in series [2] (in Zea mays) and in series [3] was no less than 80% throughout.
With `CCNC(=O)c1cc(Cl)cc(C)c1NC(=O)c1cc(Cn2nnc(C(F)(F)C(F)(F)F)n2)nn1-c1ncccc1Cl` [Example 128], in series [1] (log P), the chromatographic logP was 3.65. Also, the pest or weed control at 100 g/ha in series [2] (in Zea mays) and in series [3] was no less than 80% throughout.
Turning to `CNC(=O)c1cc(Cl)cc(C)c1NC(=O)c1cc(Cn2nnnc2C(F)(F)F)nn1-c1ccccc1F` [Example 474], the chromatographic logP in series [1] (setting [6]) came out at 2.94. Further, the pest or weed control at 100 g/ha in series [2] (setting [5]) and in series [3] was no less than 80% throughout.
With `NC(=O)c1cc(Cl)cc(Cl)c1NC(=O)c1cc(Cn2nnc(C(F)(F)C(F)(F)F)n2)nn1-c1ncccc1Cl` [Example 155], the chromatographic logP in series [1] (log P) worked out at 3.13. Moreover, the pest or weed control at 100 g/ha in series [2] (in Zea mays) and in series [3] was no less than 80% throughout.
For `Cc1cc(C#N)cc(C(=O)NC(C)(C)C)c1NC(=O)c1cc(Cn2nnc(C(F)(F)F)n2)nn1-c1ncccc1C(F)(F)F` [Example 232], the chromatographic logP in series [1] (setting [4]) came to 3.59. For the same compound, the pest or weed control at 100 g/ha in series [2] (setting [5]) and in series [3] was no less than 80% throughout.
`CC(C)(C)NC(=O)c1cc(Cl)cc(Cl)c1NC(=O)c1cc(Cn2nnnc2C(F)(F)C(F)(F)F)nn1-c1ncccc1Cl` [Example 206] had a chromatographic logP in series [1] (log P) of 3.88. Besides, the pest or weed control at 100 g/ha in series [2] (in Zea mays) and in series [3] was no less than 80% in each case.
The compound `CCNC(=O)c1cc(C#N)cc(C)c1NC(=O)c1cc(Cn2nnc(C(F)(C(F)(F)F)C(F)(F)F)n2)nn1-c1ncccc1Cl` [Example 369] displayed a chromatographic logP in series [1] (log P) of 3.57. Besides, the pest or weed control at 100 g/ha in series [2] (in Zea mays) and in series [3] was no less than 80% throughout.
Turning to `CCNC(=O)c1cc(Cl)cc(C)c1NC(=O)c1cc(Cn2nnc(C(F)(F)F)n2)nn1-c1ncccc1C(F)(F)F` [Example 237], in series [1] (setting [4]), the chromatographic logP came to 3.43. In addition, the pest or weed control at 100 g/ha in series [2] (setting [5]) and in series [3] was no less than 80% throughout.
With `Cc1cc(C#N)cc(C(=O)NC2CC2)c1NC(=O)c1cc(Cn2nnnc2C(F)F)nn1-c1ncccc1Cl` [Example 468], in series [1] (log P), the chromatographic logP is 2.12. Also, the pest or weed control at 100 g/ha in series [2] (in Zea mays) and in series [3] was no less than 80% in each case.
As for `Cc1cc(C#N)cc(C(=O)NC(C)C)c1NC(=O)c1cc(Cn2nnc(C(F)(F)C(F)(F)F)n2)nn1-c1ccccc1Cl` [Example 539], the chromatographic logP in series [1] (setting [6]) amounted to 3.91. Further, the pest or weed control at 100 g/ha in series [2] (setting [5]) and in series [3] was no less than 80% throughout.
Consider `C#CCNC(=O)c1cc(C#N)cc(C)c1NC(=O)c1cc(Cn2nnnc2C(F)(F)F)nn1-c1ncccc1Cl` [Example 187], for which the chromatographic logP in series [1] (log P) stood at 2.48. The pest or weed control at 100 g/ha in series [2] (in Zea mays) and in series [3] was no less than 80% in each case.
Regarding `Cc1cc(Cl)cc(C(=O)NC(C)(C)C)c1NC(=O)c1cc(Cn2nnc(C(F)(F)F)n2)nn1-c1ccccc1Br` [Example 348], the chromatographic logP in series [1] (setting [4]) was determined as 4.43. Also, the pest or weed control at 100 g/ha in series [2] (setting [5]) and in series [3] was no less than 80% throughout.
As to `CCNC(=O)c1cc(Br)cc(C)c1NC(=O)c1cc(Cn2nnnc2C(F)(F)F)nn1-c1ncccc1C(F)(F)F` [Example 453], in series [1] (setting [6]), the chromatographic logP was 3.17. Besides, the pest or weed control at 100 g/ha in series [2] (setting [5]) and in series [3] was no less than 80% throughout.
In the case of `Cc1cc(Cl)cc(C(=O)NC2CC2)c1NC(=O)c1cc(Cn2nnc(C(F)F)n2)nn1-c1ncccc1Cl` [Example 230], the chromatographic logP in series [1] (log P) is 2.72. Further, the pest or weed control at 100 g/ha in series [2] (in Zea mays) and in series [3] was no less than 80% in each case.
`CNC(=O)c1cc(Cl)cc(C)c1NC(=O)c1cc(Cn2nnnc2C(F)(F)C(F)(F)F)nn1-c1ncccc1Cl` [Example 198] registered a chromatographic logP in series [1] (log P) of 3.1. The pest or weed control at 100 g/ha in series [2] (in Zea mays) and in series [3] was no less than 80% throughout.
For `CNC(=O)c1cc(I)cc(C)c1NC(=O)c1cc(Cn2nnc(C(F)(F)C(F)(F)F)n2)nn1-c1ncccc1Cl` [Example 140], in series [1] (log P), the chromatographic logP amounted to 3.64. Also, the pest or weed control at 100 g/ha in series [2] (in Zea mays) and in series [3] was no less than 80% in each case.
Turning to `Cc1cc(C#N)cc(C(=O)NC2CCCCC2)c1NC(=O)c1cc(Cn2nnc(C(F)(F)F)n2)nn1-c1ncccc1Cl` [Example 400], the chromatographic logP in series [1] (log P) stood at 3.63. In addition, the pest or weed control at 100 g/ha in series [2] (in Zea mays) and in series [3] was no less than 80% throughout.
In series [1] (log P), `Cc1cc(C#N)cc(C(=O)NCC2CC2)c1NC(=O)c1cc(Cn2nnc(C(F)(F)C(F)(F)F)n2)nn1-c1ncccc1Cl` [Example 138] had a chromatographic logP of 3.56. The pest or weed control at 100 g/ha in series [2] (in Zea mays) and in series [3] was no less than 80% each time.
Regarding `Cc1cc(C#N)cc(C(=O)NC2CCCC2)c1NC(=O)c1cc(Cn2nnc(C(F)(F)F)n2)nn1-c1ncccc1Cl` [Example 399], the chromatographic logP in series [1] (log P) was 3.37. The pest or weed control at 100 g/ha in series [2] (in Zea mays) and in series [3] was no less than 80% in each case.
Compound `Cc1cc(I)cc(C(=O)NC2CC2)c1NC(=O)c1cc(Cn2nnc(C(F)(C(F)(F)F)C(F)(F)F)n2)nn1-c1ncccc1Cl` [Example 379] yielded a chromatographic logP in series [1] (log P) of 4.18. Also, the pest or weed control at 100 g/ha in series [2] (in Zea mays) and in series [3] was no less than 80% each time.
Consider `O=C(NC1CCC1)c1cc(Cl)cc(Cl)c1NC(=O)c1cc(Cn2nnc(C(F)(F)F)n2)nn1-c1ncccc1Cl` [Example 62], for which the chromatographic logP in series [1] (log P) turned out to be 3.51. Moreover, the pest or weed control at 100 g/ha in series [2] (in Zea mays) and in series [3] was no less than 80% each time.
Compound `CSC[C@H](C)NC(=O)c1cc(C#N)cc(C)c1NC(=O)c1cc(Cn2nnc(C(F)(F)C(F)(F)F)n2)nn1-c1ncccc1Cl` [Example 216] came in with a chromatographic logP in series [1] (log P) of 3.68. Further, the pest or weed control at 100 g/ha in series [2] (in Zea mays) and in series [3] was no less than 80% in each case.
`Cc1cc(C#N)cc(C(=O)NC(C)C)c1NC(=O)c1cc(Cn2nnc(C(F)(F)C(F)(F)F)n2)nn1-c1ncccc1Cl` [Example 135] came in with a chromatographic logP in series [1] (log P) of 3.55. The pest or weed control at 100 g/ha in series [2] (in Zea mays) and in series [3] was no less than 80% each time.
In the case of `Cc1cc(Br)cc(C(=O)NCC#N)c1NC(=O)c1cc(Cn2nnc(C(F)(F)F)n2)nn1-c1ncccc1C(F)(F)F` [Example 248], the chromatographic logP in series [1] (setting [4]) was 3.21. In addition, the pest or weed control at 100 g/ha in series [2] (setting [5]) and in series [3] was no less than 80% in each case.
